Calls of active or inactive are those of the source. The calls are words filed in the database; no cut-off is given here.
How the values were obtained:
[1] = Inhibition of Bacteroides fragilis GUS pre-incubated for 5 to 30 mins before 4-methylumbelliferone beta-D-glucuronide substrate addition at pH 5.5
Beta-glucuronidase [2] = target: T1, Beta-glucuronidase (Bos taurus, UniProt A3KMY8); experiment: Inhibition of bovine GUS pre-incubated for 5 to 30 mins before 4-methylumbelliferone beta-D-glucuronide substrate addition at pH 4.5
T1 sequence (A3KMY8 whole entry): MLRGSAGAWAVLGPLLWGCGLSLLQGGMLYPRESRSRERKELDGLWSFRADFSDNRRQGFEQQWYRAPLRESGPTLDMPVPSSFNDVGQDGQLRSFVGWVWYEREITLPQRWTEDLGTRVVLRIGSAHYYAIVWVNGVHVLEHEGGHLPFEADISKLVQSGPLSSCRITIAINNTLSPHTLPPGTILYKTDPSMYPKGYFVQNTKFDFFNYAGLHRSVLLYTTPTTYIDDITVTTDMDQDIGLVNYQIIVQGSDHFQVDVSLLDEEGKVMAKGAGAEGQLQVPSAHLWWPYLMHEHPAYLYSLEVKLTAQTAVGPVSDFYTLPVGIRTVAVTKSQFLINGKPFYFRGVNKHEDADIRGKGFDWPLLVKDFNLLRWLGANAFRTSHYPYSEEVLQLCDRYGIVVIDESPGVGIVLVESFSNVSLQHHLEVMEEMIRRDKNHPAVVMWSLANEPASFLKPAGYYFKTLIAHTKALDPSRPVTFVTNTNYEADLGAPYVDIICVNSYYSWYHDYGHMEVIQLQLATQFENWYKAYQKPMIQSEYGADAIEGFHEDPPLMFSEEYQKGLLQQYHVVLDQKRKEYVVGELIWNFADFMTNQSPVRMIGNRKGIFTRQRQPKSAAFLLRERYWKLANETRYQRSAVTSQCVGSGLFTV

Beta-glucuronidase [3] = target: T2, Beta-glucuronidase (Escherichia coli (strain K12), UniProt P05804); experiment: Inhibition of Escherichia coli GUS pre-incubated for 5 to 30 mins before 4-methylumbelliferone beta-D-glucuronide substrate addition at pH 5.5
[4] = Inhibition of Clostridium perfringens GUS pre-incubated for 5 to 30 mins before 4-methylumbelliferone beta-D-glucuronide substrate addition at pH 5.5
[5] = Inhibition of Ruminococcus gnavus GUS pre-incubated for 5 to 30 mins before 4-methylumbelliferone beta-D-glucuronide substrate addition at pH […]; design: species or system Mediterraneibacter gnavus
Beta-glucuronidase [6] = target: T1, Beta-glucuronidase; experiment: Inhibition of bovine GUS pre-incubated for 5 to 30 mins before 4-methylumbelliferone beta-D-glucuronide substrate addition at pH 6.7
[7] = Inhibition of Bacteroides fragilis GUS pre-incubated for 5 to 30 mins before 4-methylumbelliferone beta-D-glucuronide substrate addition at pH 6.7
Beta-glucuronidase [8] = target: T2, Beta-glucuronidase; experiment: Inhibition of Escherichia coli GUS pre-incubated for 5 to 30 mins before 4-methylumbelliferone beta-D-glucuronide substrate addition at pH 6.7
[9] = Inhibition of Ruminococcus gnavus GUS pre-incubated for 5 to 30 mins before 4-methylumbelliferone beta-D-glucuronide substrate addition at pH 6.7; design: species or system Mediterraneibacter gnavus
[10] = Inhibition of Clostridium perfringens GUS pre-incubated for 5 to 30 mins before 4-methylumbelliferone beta-D-glucuronide substrate addition at pH 6.7
[11] = (§1) Selectivity index, ratio of Ki for inhibition of Ruminococcus gnavus GUS pre-incubated for 5 to 30 mins before 4-methylumbelliferone beta-D-glucuronide substrate addition at pH 5.5 to Ki for inhibition of Escherichia coli GUS pre-incubated for 5 to 30 mins before 4-methylumbelliferone beta-D-glucuronide substrate addition at pH 5.5
[12] = as §1, with “Bacteroides fragilis” for “Ruminococcus gnavus”, “Clostridium perfringens” for “Escherichia coli”
[13] = target: Beta-glucuronidase (Escherichia coli (strain K12)) (UniProt P05804); experiment: Inhibition of Escherichia coli GUS pre-incubated for 5 to 30 mins before 4-methylumbelliferone beta-D-glucuronide substrate addition at pH 6.5 to 7.9
Bacteroides fragilis [14] = experiment: Inhibition of Bacteroides fragilis GUS pre-incubated for 5 to 30 mins before 4-methylumbelliferone beta-D-glucuronide substrate addition at pH 3.6 to 6.9
[15] = target: Beta-glucuronidase (Escherichia coli (strain K12)) (UniProt P05804); experiment: Inhibition of Escherichia coli GUS pre-incubated for 5 to 30 mins before 4-methylumbelliferone beta-D-glucuronide substrate addition at pH 3.6 to 6.9
[16] = system: Mediterraneibacter gnavus; experiment: Inhibition of Ruminococcus gnavus GUS pre-incubated for 5 to 30 mins before 4-methylumbelliferone beta-D-glucuronide substrate addition up to pH 6.9
Bacteroides fragilis [17] = experiment: Inhibition of Bacteroides fragilis GUS pre-incubated for 5 to 30 mins before 4-methylumbelliferone beta-D-glucuronide substrate addition at pH 6.5 to 7.9

T2 sequence (P05804 whole entry): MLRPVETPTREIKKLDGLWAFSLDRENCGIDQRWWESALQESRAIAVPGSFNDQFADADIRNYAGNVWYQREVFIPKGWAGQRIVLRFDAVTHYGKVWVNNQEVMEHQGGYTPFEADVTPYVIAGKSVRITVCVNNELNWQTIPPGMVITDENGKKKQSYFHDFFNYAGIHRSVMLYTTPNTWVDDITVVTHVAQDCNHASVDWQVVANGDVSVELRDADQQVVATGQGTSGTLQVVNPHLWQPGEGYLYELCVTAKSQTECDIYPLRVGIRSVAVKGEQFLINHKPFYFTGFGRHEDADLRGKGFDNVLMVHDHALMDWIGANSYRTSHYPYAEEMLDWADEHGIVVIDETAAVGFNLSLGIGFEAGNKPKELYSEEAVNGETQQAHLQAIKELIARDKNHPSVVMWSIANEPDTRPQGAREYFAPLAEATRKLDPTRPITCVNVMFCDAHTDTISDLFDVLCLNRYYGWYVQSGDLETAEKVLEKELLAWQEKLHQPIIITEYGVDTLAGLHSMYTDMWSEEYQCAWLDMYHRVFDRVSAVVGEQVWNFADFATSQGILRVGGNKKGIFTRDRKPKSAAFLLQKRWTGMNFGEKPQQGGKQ
Sequence of Beta-glucuronidase (Escherichia coli (strain K12)) (P05804 whole entry, looked up): as the sequence (P05804 whole entry) above

O=C(O)[C@H]1OC(=O)[C@H](O)[C@@H](O)[C@@H]1O
Ki [1]: 0.69 µM | Ki (Beta-glucuronidase [2]): 4.87 µM | Ki (Beta-glucuronidase [3]): 15.8 µM | Ki [4]: 4.51 µM | Ki [5]: 40.8 µM

CCC[C@@H]1NC[C@@H](O)[C@H](O)[C@H]1C(=O)O
Ki (Beta-glucuronidase [6]): 5.87 µM | Ki [7]: 3.66 µM | Ki [1]: 7.45 µM | Ki (Beta-glucuronidase [2]): 32.2 µM | Ki (Beta-glucuronidase [3]): 0.182 µM | Ki [4]: 0.425 µM | Ki (Beta-glucuronidase [8]): 0.0737 µM | Ki [9]: 51.8 µM | Ki [10]: 0.179 µM | Ki [5]: 94.6 µM

CCCN1C[C@@H](O)[C@H](O)[C@@H](C(=O)O)C1
Ki (Beta-glucuronidase [6]): 61.2 µM | Ki [7]: 15.5 µM | Ki [1]: 38.7 µM | Ki (Beta-glucuronidase [2]): 187 µM | Ki (Beta-glucuronidase [3]): 59.2 µM | Ratio Ki [11]: 700 | Ki [4]: 37.3 µM | Ki (Beta-glucuronidase [8]): 41.3 µM | Ki [9]: 5.45 µM | Ki [10]: 51.8 µM | Ki [5]: 17.6 µM | Ratio Ki [12]: 190

O=C(O)[C@H]1NC[C@H](O)[C@@H](O)[C@@H]1O
Ki [1]: 2.41 µM | Ki (Beta-glucuronidase [2]): 21.5 µM | Ki (Beta-glucuronidase [3]): 17.5 µM | Ki [4]: 12.3 µM | Ki [5]: 21 µM

O=C(O)[C@H]1NC(=O)[C@H](O)[C@@H](O)[C@@H]1O
Ki [1]: 0.069 µM | Ki (Beta-glucuronidase [2]): 0.132 µM | Ki (Beta-glucuronidase [3]): 0.232 µM | Ki [4]: 0.101 µM | Ki [5]: 0.28 µM

O=C(O)[C@H]1CNC[C@@H](O)[C@@H]1O
Ki (Beta-glucuronidase [6]): 0.0122 µM | inhibition [13]: Active | Ki [7]: 0.0036 µM | Ki (Beta-glucuronidase [2]): 0.048 µM | Ki (Beta-glucuronidase [3]): 0.034 µM | Ki [4]: 0.011 µM | inhibition (Bacteroides fragilis [14]): Active | Ki (Beta-glucuronidase [8]): 0.012 µM | Ki [9]: 0.0039 µM | inhibition [15]: Active | Ki [10]: 0.0161 µM | inhibition [16]: Active | Ki [5]: 0.05 µM | inhibition (Bacteroides fragilis [17]): Active

Source: ChEMBL document CHEMBL4342469, “Substituent Position of Iminocyclitols Determines the Potency and Selectivity for Gut Microbial Xenobiotic-Reactivating Enzymes” (J Med Chem, 2020)
